# In the NIST ThermoML archive (doi:10.1021/je100125x):
# ± gives the expanded uncertainty stated by the source.
# Columns and labels:
# [1] = Crystal; DTA
# [2] = Molar enthalpy of transition or fusion; details: Crystal; DSC
smiles,measurement,setting,value
C[C@@H]1CC[C@H]2[C@@H](C)C(=O)O[C@@H]3O[C@@]4(C)CC[C@@H]1[C@]32OO4 [artemisinin],Triple point temperature,[1],429.6 ± 1.1 K
same,Molar enthalpy of transition or fusion,[2],5.81 ± 0.225 kcal/mol
